Experimental data taken from patent US4812567A, “Polycyclic spiroimides with psychotropic activity” (American Home Products Corporation, priority 1986, dated 1989).
Counter-ions that a name gives are not always drawn.

Test system: conditioned avoidance (shelf-jump response)
Assay: conditioned avoidance (shelf-jump response) test in rats
Format: in vivo, Male CD rats
Excerpt: A test designed to determine the potential antipsychotic activity of the compounds of this invention is the conditioned avoidance (shelf-jump response) test. Male CD rats (Charles River) maintained at approximately 400-450 gm body weight are used. […] A moveable wall, controlled by a motor, determines whether the rat has access to the shelf at any time during the experiment. The experimental chamber also contains a house light and sonalert. A steel grid floor in the main chamber is wired for presentation of electric shock. Each trial consists of a […]-second warning tone (conditioned stimulus), continuing for an additional fifteen seconds accompanied by electric shock, (unconditioned stimulus). A response (jumping onto the exposed shelf of the upper chamber) occurring during the initial fifteen-second warning tone is considered an avoidance response, while a response occurring during shock delivery is considered an escape response. Trials are presented on a fixed interval schedule of one minute. The session consists of thirty-six trials. Animals are run twice weekly with control sessions always preceding a drug run, and with at least one day intervening. Compounds are administered i.p. or p.o. at appropriate pre-treatment times to a minimum of five rats at each dose level over a range of doses. […] Response counts are summed over all subjects at a given dose. […] This number is expressed as a percentage of the total trials. […] Potential antipsychotic compounds suppress avoidance responding and increase escape responding.

Compound	Active at (i.p.) [mg/kg]	Active at (orally administered) [mg/kg]
O=C1CC2(CCC3CCC2C3)C(=O)N1CCCCN1CCN(c2ncccn2)CC1 (centres unmarked) [Example 1, 1'-[4-[4-(2-Pyrimidinyl)-1-piperazinyl]butyl]spiro[bicyclo[3.2.1]octane-2,3'-pyrrolidine]-2',5'-dione, dihydrochloride, hemihydrate]	40	–
O=C1CC2(CCCC2)CC(=O)N1CCCCN1CCN(c2cncc(Cl)n2)CC1 [Example 4, 8-[4-[4-(6-Chloro-2-pyrazinyl)-1-piperazinyl]butyl]-8-azaspiro[4,5]decane-7,9-dione dihydrochloride, hydrate]	–	40
O=C1CC2(CCCC2)CC(=O)N1CCCCN1CCN(c2nccnc2Cl)CC1 [Example 5, 8-[4-[4-(3-Chloro-2-pyrazinyl)-1-piperazinyl]butyl]-8-azaspiro[4,5]decane-7,9-dione dihydrochloride, hemihydrate]	40	–
O=C1CC2(CCCC2)CC(=O)N1CCCCN1CCN(c2ccc(Cl)nn2)CC1 [Example 6, 8-[4-[4-(6-Chloro-3-pyridazinyl]-1-piperazinyl]-8-azaspiro[4,5]decane-7,9-dione dihydrochloride]	40	–
Octahydro-1'-[4-[4-(2-Pyrimidinyl)-1-piperazinyl]butyl]spiro[4,7-methano-5H-indene-5,3'-pyrrolidine]-2',5'-dione, dihydrochloride [Example 2]	40	–
